Data published in patent EP3035931B1, “COMPOSITION FOR REDUCING NERVOUS SYSTEM INJURY AND METHOD OF MAKING AND USE THEREOF” (Morehouse School of Medicine, priority 2013, dated 2015).
Positions count from the first letter of the chain named. Read-outs that look alike come from different tables or passages of the source.

Tests used:
Na^+/Ca^2+ ion exchanger = conditions: cited from earlier work
ASICs [1] = biological target: T1, ASICs (Mus musculus, UniProt Q6NXK8); format: cell-based; conditions: cultured mouse cortical neurons; n=8; read-out: IC50, dose-dependent blockade of ASIC currents
T1 sequence (Q6NXK8 1-526): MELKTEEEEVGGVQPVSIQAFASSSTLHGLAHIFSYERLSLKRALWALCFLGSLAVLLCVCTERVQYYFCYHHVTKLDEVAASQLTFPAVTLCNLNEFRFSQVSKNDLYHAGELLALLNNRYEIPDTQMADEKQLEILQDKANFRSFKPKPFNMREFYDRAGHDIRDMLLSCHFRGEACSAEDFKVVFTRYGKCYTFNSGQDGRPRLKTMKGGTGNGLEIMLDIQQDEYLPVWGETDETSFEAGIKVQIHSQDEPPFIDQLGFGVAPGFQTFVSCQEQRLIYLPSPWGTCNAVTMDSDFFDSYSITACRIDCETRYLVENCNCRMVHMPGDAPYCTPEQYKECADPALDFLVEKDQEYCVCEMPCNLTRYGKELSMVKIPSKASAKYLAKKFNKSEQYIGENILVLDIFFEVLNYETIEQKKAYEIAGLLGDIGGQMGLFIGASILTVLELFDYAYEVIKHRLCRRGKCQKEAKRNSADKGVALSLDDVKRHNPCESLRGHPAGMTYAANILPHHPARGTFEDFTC
T1 sequence (Q925H0 1-512 partner): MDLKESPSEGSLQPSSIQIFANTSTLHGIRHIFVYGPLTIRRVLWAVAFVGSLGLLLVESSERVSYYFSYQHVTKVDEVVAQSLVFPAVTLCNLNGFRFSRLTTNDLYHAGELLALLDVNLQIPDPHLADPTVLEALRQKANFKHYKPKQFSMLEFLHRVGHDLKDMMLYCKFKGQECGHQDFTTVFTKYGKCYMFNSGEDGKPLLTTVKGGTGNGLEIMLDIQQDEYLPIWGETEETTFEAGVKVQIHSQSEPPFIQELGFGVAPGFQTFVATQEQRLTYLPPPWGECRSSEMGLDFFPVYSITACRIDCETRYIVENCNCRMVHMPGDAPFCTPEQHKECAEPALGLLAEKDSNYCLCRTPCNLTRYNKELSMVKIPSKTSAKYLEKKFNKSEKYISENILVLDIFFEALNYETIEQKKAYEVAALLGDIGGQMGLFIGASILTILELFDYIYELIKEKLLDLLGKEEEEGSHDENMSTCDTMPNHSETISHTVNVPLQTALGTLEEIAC

ASIC1a = biological target: T2, ASIC1a (Homo sapiens, UniProt P78348); test: Blockade of ASIC 1a current expressed in CHO cells; format: cell-based; set-up: expressed in transfected cells; host or cells: CHO; conditions: CHO cells, FIG. 16
T2 sequence (P78348 1-528): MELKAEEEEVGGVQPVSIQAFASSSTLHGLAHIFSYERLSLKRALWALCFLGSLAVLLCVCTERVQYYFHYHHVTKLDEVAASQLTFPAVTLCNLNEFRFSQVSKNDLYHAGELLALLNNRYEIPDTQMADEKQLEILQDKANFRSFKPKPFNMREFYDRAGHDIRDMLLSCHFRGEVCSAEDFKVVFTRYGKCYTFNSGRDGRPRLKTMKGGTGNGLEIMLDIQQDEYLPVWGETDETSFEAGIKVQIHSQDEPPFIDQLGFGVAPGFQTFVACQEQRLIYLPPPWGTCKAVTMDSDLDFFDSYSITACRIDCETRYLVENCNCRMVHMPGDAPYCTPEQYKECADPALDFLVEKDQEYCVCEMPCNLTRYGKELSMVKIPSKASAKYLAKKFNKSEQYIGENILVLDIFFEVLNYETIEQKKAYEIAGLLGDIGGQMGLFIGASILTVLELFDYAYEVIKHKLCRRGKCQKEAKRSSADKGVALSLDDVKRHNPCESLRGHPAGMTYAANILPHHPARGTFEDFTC

ASICs [2] = biological target: T3, ASICs (Mus musculus, UniProt Q6NXK8); format: cell-based; conditions: 100 µM amiloride; pH 6.0; n=6
T3 construct: endogenous in cells; host or cells: primary cortical neurons from E16 Swiss mice
T3 sequence (Q6NXK8 1-526): T1 sequence (Q6NXK8 1-526)

ASIC2a = biological target: T4, ASIC2a (Homo sapiens, UniProt Q16515); test: Blockade of ASIC 2a current expressed in CHO cells; format: cell-based; conditions: CHO cells, FIG. 17
T4 construct: expressed in transfected cells; host or cells: CHO
T4 sequence (Q16515 1-512): T1 sequence (Q925H0 1-512 partner) with T132S, E471D, M479V, A503T

[3] = format: in vivo, rats; conditions: n=11
[4] = Mouse 60 min MCAO, intracerebroventricular injection one hour after MCAO, infarct volume; conditions: mice, evaluated one day after ischemia induction, FIG. 18
ASIC1^-/- neurons = format: cell-based, mouse; conditions: ASIC1^-/- neurons; n=8 each
Description: Following anesthesia with halothane, cerebral cortices were dissected from E16 Swiss mice or P1 ASIC1+/+ and ASIC1-/- mice and incubated with 0.05% trypsin-EDTA for 10 min at 37° C. Tissues were then triturated with fire-polished glass pipettes and plated on poly-L-ornithine-coated 24-well plates or 25x25 mm glass coverslips at a density of 2.5x10^5 cells per well or 10^6 cells per coverslip. Neurons were cultured with MEM supplemented with 10% horse serum (for E16 cultures) or Neurobasal medium supplemented with B27 (for PI cultures) and used for electrophysiology and toxicity studies after 12 days. Glial growth was suppressed by addition of 5-fluoro-2-deoxyuridine and uridine, yielding cultured cells with 90% neurons as determined by NeuN and GFAP staining (data not shown).
Background absorbance at 620 was subtracted.
. […] . In contrast to acid incubation, 1 hr treatment of ASIC1^-/- neurons with 1 mM NMDA+10 µM glycine (in Mg^2+-free [pH 7.4] ECF) induced 84.8% ± 1.4% of maximal LDH release at 24 hr (n=4, FIG. 9C), indicating normal response to other cell injury processes.

In the case of `N=C(N)NC(=O)c1nc(Cl)c(N)nc1N` [amiloride], the IC50 (Na^+/Ca^2+ ion exchanger) is listed as 1100 µM, the IC50 (ASICs [1]) is listed as 16.4 ± 4.1 µM and the “block of ASIC1a current” value (ASIC1a) is listed as “dose-dependent”. The “peak amplitude of Ca^2+-mediated current, of control” value (ASICs [2]) was 26% ± 2%, the “block of ASIC2a current” value (ASIC2a) was “dose-dependent” and the infarct volume [3] was 229.7 ± 41.1 mm^3. For the same compound, the infarct volume [4] was “effectively reduce infarct volume” and the “effect on acid-induced LDH release after knockout of the ASIC1 gene” value (ASIC1^-/- neurons) was “eliminated the effect”.
